Source: patent publication US20160151337A1, “ANNELATED PYRROLES AND THEIR USE AS CRAC INHIBITORS” (Grünenthal GmbH, priority 2013, published 2016)

Columns and labels:
CRAC channel = target: T1, CRAC channel (Homo sapiens, UniProt Q96D31); test: HEK Calcium Influx Assay (FLIPR), inhibition of store-operated Ca2+ entry after thapsigargin store depletion; type: cell-based; conditions: 10 μM compound, HEK293 cells, read-out: % inhib. [@ 10 μM] FLIPR
T1 construct: endogenous in cells; host or cells: HEK293 (ECACC), untransfected
T1 sequence (Q96D31 whole entry): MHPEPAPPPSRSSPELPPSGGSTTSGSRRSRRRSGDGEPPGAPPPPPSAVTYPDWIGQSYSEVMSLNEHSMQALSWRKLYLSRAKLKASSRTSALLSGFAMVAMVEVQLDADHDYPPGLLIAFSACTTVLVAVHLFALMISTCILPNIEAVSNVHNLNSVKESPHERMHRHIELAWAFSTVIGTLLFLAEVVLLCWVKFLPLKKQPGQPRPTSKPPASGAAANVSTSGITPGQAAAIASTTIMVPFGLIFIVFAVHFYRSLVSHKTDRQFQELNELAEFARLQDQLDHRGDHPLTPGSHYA
Procedure: The effect of compounds of the invention on intracellular [Ca^2+] was tested in the HEK293 cell line (ECACC).
HEK293 cells were cultured in DMEM/F12/Glutamax (Gibco) containing 10% FCS (Gibco), and maintained at 37° C., 5% CO2. Cell were split twice a week [3*10^6 (Mon-Thu) and 1*10^6 (Thu-Mon) cells/50 ml medium in 1-175 ZK culture flasks, respectively]. Twenty four hours pre-experiment, cells were seeded on 96 well plates (Poly-D-Lysine 96 well Black/Clear Plate, BD Biocoat REF 356640) at a density of 40,000 cells/well in DMEM/F12 (Gibco) containing 10% FCS (Gibco), and maintained at 37° C., 5% CO2.
Prior to store-depletion, cell culture medium was removed and cells were loaded with the Calcium-sensitive fluorescent dye comprised within the Calcium-4-assay kit (Molecular Devices) in nominally Ca^2+-free HBS buffer (140 mM NaCl, 4 mM KCl, 0.2 mM MgCl2, 11 mM D-glucose, and 10 mM HEPES, pH 7.4) according to manufacturer's instruction for 60 min at 37° C., 5% CO2.
Passive depletion of intracellular Ca^2+-stores was then triggered by employing the SERCA inhibitor thapsigargin (2 μM final) for 10 min in the dark (RT). To prevent immediate Ca^2+-entry via the activated store-operated channels (SOCs), cells were maintained in Ca^2+-free HBS buffer comprising 100 μM EGTA during store-depletion.
Intracellular changes in [Ca^2+] were subsequently monitored with the FLIPR device (Molecular Devices). In brief, baseline imaging post-store depletion was allowed for 1 min before adjusting the extracellular buffer to 3 mM CaCl2. Increases in intracellular [Ca^2+] due to pre-activated SOC channels were monitored for 15 min until intracellular Ca^2+ levels had declined into a steady-state. Finally, compounds were administered, and Ca^2+ signals were recorded for additional 10 min.
Inhibition of endogenous SOC in HEK293 cells was quantified employing the average Ca^2+ signal measured from 9.5-10 min post-administration. Zero percent inhibition (MAX) was defined as the Ca^2+ signal recorded from wells to which DMSO-only had been added instead of compound. Hundred percent inhibition (MIN) was defined as the signal obtained from wells in which cells haven't been treated with TG prior to Ca^2+ addition and to which DMSO-only had been added instead of compound. For routine IC50 determinations of compounds, 8 concentrations of a serial dilution (1:3.16) were tested, starting off from 10 μM. Reliable IC50's could consequently be determined only, if they were at least sub 2.5-3 μM.

[1] = system: Interleukin-2 (IL-2) production/release in Jurkat T cells; test: Jurkat IL-2 Production Assay (PHA-stimulated, IL-2 AlphaLisa); type: cell-based; conditions: Homo sapiens, PHA 15 μg/ml, 22 h, inhibition of IL-2 production
Procedure: The effect of compounds of the invention on Interleukin-2 (IL-2) production/release was tested in the Jurkat T cell line (ECACC) clone E6-1.
Jurkat T cells were cultured in DMEM/F12/Glutamax (Gibco) containing 10% FCS (Gibco), and maintained at 37° C., 5% CO2. Cells were split twice a week [5*10^6 (Mon-Thu) and 1*10^7 (Thu-Mon) cells/50 ml medium in 1-175 ZK culture flasks, respectively].
Prior to experiment, cells were seeded on 96 well plates (Cellstar 96 Well; Cat No. 655180, Greiner bio-one) at a density of 5*10^5 cells/well in DMEM/F12/Glutamax (Gibco) containing 10% FCS (Gibco), and incubated for 60 min at 37° C., 5% CO2. Subsequently, compounds were added and cells were allowed to incubate for 30 min at 37° C., 5% CO2. Cells were then stimulated with 15 μg/ml Phyto-hemagglutinin (PHA; Sigma) for 22 hours at 37° C., 5% CO2.
Before sampling of the supernatants, cells were spun down (200*g/5 min/RT). The amount of IL-2 released into the supernatant was quantified with the human IL-2 AlphaLisa kit (Perkin Elmer) according to manufacturer's instructions. Luminescence proximity measurements were carried out in the Synergy H4 reader (BioTek) employing the fluorescence setting of the reader (ex: 680/30 nm; em: 620/40 nm).
Inhibition of IL-2 production/release in/from Jurkat T cells was quantified as follows: Zero percent inhibition (MAX) was defined as the [IL-2] determined in supernatants derived from cells to which PHA & DMSO-only had been added instead of compound. Hundred percent inhibition (MIN) was defined as the [IL-2] determined in supernatants derived from cells that had been pre-treated with 1 μM CyclosporineA (Sigma) before the addition of 15 μg/ml PHA.
For routine IC50 determinations of compounds, 8 concentrations of a serial dilution (1:3.16) were tested, starting off from 10 μM.

Row | Structure (SMILES) | inhibition at 10 µM (CRAC channel) [%] | IC50 [1] [µM]
1 | COc1cc(C(F)(F)F)ncc1N1CCc2[nH]c(-c3c(F)cccc3F)cc2C1 [Example 112, 2-(2,6-Difluoro-phenyl)-5-[4-methoxy-6-(trifluoromethyl)-pyridin-3-yl]-4,5,6,7-tetrahydro-1H-pyrrolo[3,2-c]pyridine] | < 50 | < 0.5
2 | CC(=O)c1ccc(N2CCc3[nH]c(-c4c(F)cccc4F)cc3C2)c(C)c1 [Example 82, 1-[4-[2-(2,6-Difluoro-phenyl)-4,5,6,7-tetrahydro-1H-pyrrolo[3,2-c]pyridin-5-yl]-3-methyl-phenyl]-ethanone] | > 70 | 0.5 to 1
3 | CCn1nc(C(F)(F)F)cc1N1CCc2[nH]c(-c3c(F)cccc3F)cc2C1 [Example 130, 2-(2,6-Difluoro-phenyl)-5-[2-ethyl-5-(trifluoromethyl)-2H-pyrazol-3-yl]-4,5,6,7-tetrahydro-1H-pyrrolo[3,2-c]pyridine] | > 70 | < 0.5
4 | Fc1cccc(F)c1-c1cc2c([nH]1)CCN(c1cccc(C(F)(F)F)c1)C2 [Example 7, 2-(2,6-Difluoro-phenyl)-5-[3-(trifluoromethyl)phenyl]-4,5,6,7-tetrahydro-1H-pyrrolo[3,2-c]pyridine] | < 50 | 1 to 5
5 | Cc1cc(C#N)ccc1N1CCc2[nH]c(-c3c(F)cccc3F)cc2C1 [Example 12, 4-[2-(2,6-Difluoro-phenyl)-4,5,6,7-tetrahydro-1H-pyrrolo[3,2-c]pyridin-5-yl]-3-methyl-benzonitrile] | 50 to 70 | < 0.5
6 | Cc1cc([S+](C)[O-])ncc1N1CCc2[nH]c(-c3c(F)cccc3F)cc2C1 (stereo not shown) [Example 70, 2-(2,6-Difluoro-phenyl)-5-[4-methyl-6-(methylsulfinyl)-pyridin-3-yl]-4,5,6,7-tetrahydro-1H-pyrrolo[3,2-c]pyridine] | > 70 | 1 to 5
7 | Cc1cc(C)c(-c2cc3c([nH]2)CCN(c2cnc(C(F)(F)F)cc2C)C3)cn1 [Example 135, 2-(4,6-Dimethyl-pyridin-3-yl)-5-[4-methyl-6-(trifluoromethyl)-pyridin-3-yl]-4,5,6,7-tetrahydro-1H-pyrrolo[3,2-c]pyridine] | < 50 | 0.5 to 1
8 | Cc1nc(Cl)ccc1N1CCc2[nH]c(-c3c(F)cccc3F)cc2C1 [Example 15, 5-(6-Chloro-2-methyl-pyridin-3-yl)-2-(2,6-difluoro-phenyl)-4,5,6,7-tetrahydro-1H-pyrrolo[3,2-c]pyridine] | > 70 | 1 to 5
9 | CNS(=O)(=O)c1ccc(N2CCc3[nH]c(-c4c(F)cccc4F)cc3C2)c(C)c1 [Example 114, 4-[2-(2,6-Difluoro-phenyl)-4,5,6,7-tetrahydro-1H-pyrrolo[3,2-c]pyridin-5-yl]-N,3-dimethyl-benzenesulfonic acid amide] | < 50 | < 0.5
10 | Cc1nc(-c2cccnc2)sc1N1CCc2[nH]c(-c3c(F)cccc3F)cc2C1 [Example 18, 5-[2-(2,6-Difluoro-phenyl)-4,5,6,7-tetrahydro-1H-pyrrolo[3,2-c]pyridin-5-yl]-4-methyl-2-pyridin-3-yl-thiazole] | > 70 | < 0.5
11 | Cc1cc(S(=O)(=O)N2CCCC2)ccc1N1CCc2[nH]c(-c3c(F)cccc3F)cc2C1 [Example 121, 2-(2,6-Difluoro-phenyl)-5-[2-methyl-4-(pyrrolidin-1-ylsulfonyl)-phenyl]-4,5,6,7-tetrahydro-1H-pyrrolo[3,2-c]pyridine] | > 70 | 1 to 5
12 | Cc1cc(S(C)(=O)=O)c(F)cc1N1CCc2[nH]c(C3CCCCC3)cc2C1 [Example 110, 2-Cyclohexyl-5-(5-fluoro-2-methyl-4-methylsulfonyl-phenyl)-4,5,6,7-tetrahydro-1H-pyrrolo[3,2-c]pyridine] | < 50 | 1 to 5
13 | Cc1sc(-c2cccnc2)nc1N1CCc2[nH]c(-c3c(F)cccc3F)cc2C1=O [Example 1, 2-(2,6-Difluoro-phenyl)-5-(5-methyl-2-pyridin-3-yl-thiazol-4-yl)-1,5,6,7-tetrahydro-pyrrolo[3,2-c]pyridin-4-one] | 50 to 70 | 1 to 5
14 | Cc1cc(S(=O)(=O)N(C)C2CC2)ccc1N1CCc2[nH]c(-c3c(F)cccc3F)cc2C1 [Example 120, N-Cyclopropyl-4-[2-(2,6-difluoro-phenyl)-4,5,6,7-tetrahydro-1H-pyrrolo[3,2-c]pyridin-5-yl]-N,3-dimethyl-benzenesulfonic acid amide] | < 50 | 1 to 5
15 | Fc1cccc(F)c1-c1cc2c([nH]1)CCN(c1cc3c(cc1Cl)OC(F)(F)O3)C2 [Example 9, 5-(6-Chloro-2,2-difluoro-1,3-benzodioxol-5-yl)-2-(2,6-difluoro-phenyl)-4,5,6,7-tetrahydro-1H-pyrrolo[3,2-c]pyridine] | < 50 | 1 to 5
16 | Cc1sccc1N1CCc2[nH]c(-c3c(F)cccc3F)cc2C1=O [Example 47, 2-(2,6-Difluoro-phenyl)-5-(2-methyl-thiophen-3-yl)-1,5,6,7-tetrahydro-pyrrolo[3,2-c]pyridin-4-one] | > 70 | –
17 | Cc1ccc(C#N)cc1N1CCc2[nH]c(-c3c(F)cccc3F)cc2C1 [Example 29, 3-[2-(2,6-Difluoro-phenyl)-4,5,6,7-tetrahydro-1H-pyrrolo[3,2-c]pyridin-5-yl]-4-methyl-benzonitrile] | 50 to 70 | –
18 | Cc1sccc1N1CCc2[nH]c(-c3c(F)cccc3Cl)cc2C1 [Example 60, 2-(2-Chloro-6-fluoro-phenyl)-5-(2-methyl-thiophen-3-yl)-4,5,6,7-tetrahydro-1H-pyrrolo[3,2-c]pyridine] | > 70 | –
19 | Cc1sccc1N1CCc2[nH]c(-c3c(F)cccc3Cl)cc2C1=O [Example 51, 2-(2-Chloro-6-fluoro-phenyl)-5-(2-methyl-thiophen-3-yl)-1,5,6,7-tetrahydro-pyrrolo[3,2-c]pyridin-4-one] | > 70 | –
20 | Cc1cc(C(=O)N(C)C)ccc1N1CCc2[nH]c(-c3c(F)cccc3F)cc2C1 [Example 81, 4-[2-(2,6-Difluoro-phenyl)-4,5,6,7-tetrahydro-1H-pyrrolo[3,2-c]pyridin-5-yl]-N,N,3-trimethyl-benzamide] | > 70 | –
21 | COc1cc(C)c(N2CCc3[nH]c(-c4c(F)cccc4F)cc3C2=O)cn1 [Example 39, 2-(2,6-Difluoro-phenyl)-5-(6-methoxy-4-methyl-pyridin-3-yl)-1,5,6,7-tetrahydro-pyrrolo[3,2-c]pyridin-4-one] | 50 to 70 | –
22 | Cc1sc(-c2ccccn2)nc1N1CCc2[nH]c(-c3c(F)cccc3F)cc2C1=O [Example 5, 2-(2,6-Difluoro-phenyl)-5-(5-methyl-2-pyridin-2-yl-thiazol-4-yl)-1,5,6,7-tetrahydro-pyrrolo[3,2-c]pyridin-4-one] | 50 to 70 | –
